In patent US20240277631A1, “SMALL MOLECULE DRUG (ELP-004) TO PREVENT BONE LESIONS CAUSED BY MULTIPLE MYELOMA” (West Virginia University Board of Governors on behalf of …, priority 2023, published 2024):

Legend:
Murine BMSMCs [1] = assay: cytosolic Ca2+ levels and NFAT nuclear translocation during osteoclastogenesis; type: cell-based; conditions: 100 nM
water solubility = type: physicochemical
Excerpt: Those persons of ordinary skill in the art will understand that ELP-004 may be solubilized in ethanol and then diluted in sterile saline. These methods include wherein the route of administration may be, for example but not limited to, the intravenous, intramuscular, or subcutaneous routes, or via the oral route of administration.

Murine BMSMCs [2] = assay: RANKL-induced osteoclastogenesis (TRAP, multinucleation, marker mRNA); type: cell-based; conditions: RANKL (100 ng/ml)
Description: Murine BMSMCs were grown for up to 21 days in media supplemented with 50 ng/ml of m-CSF and 100 ng/mL RANKL. Each experiment was repeated a minimum of three times. Cells were fixed and stained for Tartrate Resistant Acid Phosphatase (TRAP) activity at days 1, 7, 14, and 21. The number of trap positive osteoclast-like cells (out of 100 cells) were counted for each time point, along with TRAP intensity, as shown in schematic A. In schematic B, the number of nuclei for each cell counted and the average number of nuclei per cell for 100 cells is shown at each time point.

[3] = tested on: human myeloma cells (U266 cells); assay: bone loss in the animal model of multiple myeloma; type: in vivo; conditions: mice engrafted with human U266 myeloma cells, 60 mg/kg ELP-004 at 72h intervals (summary statement)
Description: Shown are cross-sections of distal femur micro-computer tomographic images from mice treated with 60 mg/kg ELP-004 or vehicle control at 72h intervals after the engraftment of human 2×10^6 myeloma cells (U266 cells). Confirmation of engraftment was verified by measuring serum human IgE levels.

CYP2C9 = CYP2C9 (Homo sapiens, UniProt P11712); assay: stability with recombinant CYP2C9; type: in vitro ADME
CYP2C9, sequence (P11712 whole entry): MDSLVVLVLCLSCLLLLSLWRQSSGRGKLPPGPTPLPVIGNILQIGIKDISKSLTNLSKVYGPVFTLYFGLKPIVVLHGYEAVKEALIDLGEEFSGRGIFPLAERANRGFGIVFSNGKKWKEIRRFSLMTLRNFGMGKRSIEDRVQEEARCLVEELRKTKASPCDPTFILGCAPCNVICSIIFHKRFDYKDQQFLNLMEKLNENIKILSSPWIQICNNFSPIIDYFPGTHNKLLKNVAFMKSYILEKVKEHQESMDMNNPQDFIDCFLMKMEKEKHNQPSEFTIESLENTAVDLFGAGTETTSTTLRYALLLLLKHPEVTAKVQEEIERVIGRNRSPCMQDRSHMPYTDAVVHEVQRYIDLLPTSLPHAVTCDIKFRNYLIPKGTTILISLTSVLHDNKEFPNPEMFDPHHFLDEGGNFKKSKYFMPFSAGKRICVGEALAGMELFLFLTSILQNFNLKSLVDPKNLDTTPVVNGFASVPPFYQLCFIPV
Description: (§1) Depicted in table 2 is cytochrome P450 phenotyping and inhibition by ELP-004. The stability of ELP-004 was tested in the presence of recombinant enzymes CYP1A2, CYP2B6, CYP2C8, CYP2C9, CYP2C19, CYP2D6, and CYP3A4. ELP-004 (1 μM) was incubated with recombinant enzymes and NADPH. The amount of ELP-004 remaining at each timepoint was analyzed by LC-MS/MS. Incubations in control recombinant enzymes were also performed to assess non-enzymatic mediated stability. The intrinsic clearance of ELP-004 was determined. […] A decrease in the formation of the metabolite compared to vehicle control is used to calculate an IC50 value. Metabolite peak area ratio response as a percentage of vehicle control is plotted against the test compound concentration.

CYP2D6 = CYP2D6 (Homo sapiens, UniProt P10635); assay: stability with recombinant CYP2D6; type: in vitro ADME
CYP2D6, sequence (P10635 whole entry): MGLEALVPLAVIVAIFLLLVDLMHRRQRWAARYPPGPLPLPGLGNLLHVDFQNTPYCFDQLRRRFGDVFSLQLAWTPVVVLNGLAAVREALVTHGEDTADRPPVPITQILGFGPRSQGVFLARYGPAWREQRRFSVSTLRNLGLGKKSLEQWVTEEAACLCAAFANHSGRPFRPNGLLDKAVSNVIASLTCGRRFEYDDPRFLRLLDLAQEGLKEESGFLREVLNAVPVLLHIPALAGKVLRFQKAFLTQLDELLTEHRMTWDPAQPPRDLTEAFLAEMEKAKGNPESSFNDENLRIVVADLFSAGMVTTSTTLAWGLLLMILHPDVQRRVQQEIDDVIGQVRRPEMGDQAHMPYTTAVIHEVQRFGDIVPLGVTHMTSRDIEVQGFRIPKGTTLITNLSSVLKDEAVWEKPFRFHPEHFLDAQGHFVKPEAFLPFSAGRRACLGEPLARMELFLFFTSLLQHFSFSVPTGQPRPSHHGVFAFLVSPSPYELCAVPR
Description: as §1

Which NFAT nuclear translocation (Murine BMSMCs [1]; LTB4-induced changes) does the source give for `CCC(=O)N(C)c1ccc(Cl)c(Cl)c1` [ELP-004, N-(3,4-dichlorophenyl)-N-methylpropanamide] here?
The NFAT nuclear translocation was “significantly inhibited”.

And the “cytosolic Ca2+ levels” value (Murine BMSMCs [1]; LTB4-induced changes)?
Its value is “significantly inhibited”.

And the NFAT nuclear translocation (Murine BMSMCs [1]; RANKL-induced osteoclastogenesis)?
The NFAT nuclear translocation was “had no effect”.

What about the NFAT nuclear translocation (Murine BMSMCs [1]; TNFα-induced changes) of the same compound?
Its NFAT nuclear translocation is “significantly inhibited”.

And the “cytosolic Ca2+ levels” value (Murine BMSMCs [1]; TNFα-induced changes)?
The value was “significantly inhibited”.

What about the water solubility (water solubility) of the same compound?
The water solubility was “not water soluble”.

And the TRAP activity (Murine BMSMCs [2])?
The TRAP activity was “no significant effect”.

And the multinucleation (Murine BMSMCs [2])?
The multinucleation was “no significant effect”.

What about the “expression of osteoclast markers” value (Murine BMSMCs [2]; RT-PCR days 7 and 14) of the same compound?
Its value is “no significant effect”.

And the “development of bone lesions” value [3]?
The value was “strongly suppressed”.

And the microsomal CLint at 1 μM (CYP2C9; human, recombinant CYP2C9, intrinsic clearance, read-out: Recombinant CYP CLINT)?
The microsomal CLint at 1 μM was less than 0.154 µL/min/mg.

And the “metabolism by recombinant enzyme” value (CYP2C9; recombinant CYP2C9)?
The value was “not metabolized”.

And the “ELP-004 t1/2” value (CYP2C9; recombinant CYP2C9, 1 μM, NADPH)?
The value was greater than 3 h.

And the microsomal CLint at 1 μM (CYP2D6; human, recombinant CYP2D6, intrinsic clearance, read-out: Recombinant CYP CLINT)?
Its microsomal CLint at 1 μM is less than 0.154 µL/min/mg.

What about the “metabolism by recombinant enzyme” value (CYP2D6; recombinant CYP2D6) of the same compound?
Its value is “not metabolized”.

What about the “ELP-004 t1/2” value (CYP2D6; recombinant CYP2D6, 1 μM, NADPH) of the same compound?
The value was greater than 3 h.
